In US11547842B2, “Methods for cancer treatment” (The Board of Trustees of the Leland Stanford Junior …, priority 2013, dated 2023):
Like-named read-outs stand apart in the source and are kept apart here.

Legend:
mycosis fungoides [1] = settings: human, in vivo
mycosis fungoides [2] = assay: Therapy history of patient 3 before SD-101 (clinical response, tolerability)

Molecule	reason the therapy was stopped (toxicity) (mycosis fungoides [1])	reason the therapy was stopped (toxicity) (mycosis fungoides [2])	response to therapy (mycosis fungoides [2]; Zolinza with 12 Gy TSEBT, Targretin 300 mg daily, SGN-35 clinical trial)
SGN-35: agent of the SGN-35 clinical trial in which patient 3 participated	too much toxicity		
C=C(c1ccc(C(=O)O)cc1)c1cc2c(cc1C)C(C)(C)CCC2(C)C [Targretin]		hypertriglyceridemia	partial response in the skin
